Experimental data from PMC8877233, “The Hydrophobicity and Antifungal Potentiation of Burkholdine Analogues” (Molecules, 2022).
Starred links: 1 amine or outer side, 2 acyl side, 3 side chain; linkers in the order of their positions; H or OH if unused. Positions of bridges follow the written chain, without caps; N, C: chain ends. Non-standard residues stand in square brackets, D forms with d. Residues, ends and D or L forms follow the SMILES beside them. X3 = CCCCCCCCCCC(=O)N[C@H](C(=O)NC[C@@H](CC(=O)[*:1])N[*:2])[C@@H](C)O; X2 = CCCCCCCCNC(=O)[C@H](O)[C@@H](O)C(=O)NC[C@@H](CC(=O)[*:1])N[*:2]

Experiments:
S. cerevisiae [1] = assay: Potentiation assay with zeocin; type: cell-based; details: assays attempted three times
Procedure: (§1) Two antibiotics with different mechanisms of action can have a synergistic effect, together exerting an antifungal activity higher than the sum of their individual activities. Accordingly, the potentiation of the antifungal effect of G418 (Geneticin), an aminoglycosyl-type antibiotic that inhibits protein biosynthesis by binding to the ribosome 70S and 80S subunits, and zeocin (phleomucin D1), a glycopeptide antibiotic and DNA intercalator, by cyclic peptides (3a)–(8) was evaluated. Although the relatively high PSA and negative logP values of Bk analogues (3a)–(8) are not conductive to cell penetration, there was the possibility that their fatty side chains have an affinity for cell surfaces. […] The mechanism of action is not clear, but it is possible that the interaction of the cyclic peptides (3a)–(8) with the cell wall increases its susceptibility to penetration by G418.
The prepared test bacteria (50 µL) were placed in well A1–A12 of a 96-well plate. G418 (200 mg/mL, 108321-42-2, Nacalai tesque, Japan) in H2O, then medium […] was added to A1, pipetting was performed, and 50 µL was extracted from A1 and placed in A2. This operation was repeated until A11, and 50 µL extracted from A11 was discarded. After 30 min, Bk analogue (200 μg/mL) in medium […] was added to each solution (final concentration = 100 μg/mL). The well plate was closed and incubated at 30 °C. […]

Candida albicans = details: cited from earlier work
From the text: The burkholdines (Bks) are a family of 25-membered cyclic lipopeptides composed of eight amino acids arranged in a lactam ring bearing a lipophilic side chain, which were first isolated from the proteobacteria Burkholderia ambifaria 2.2N by Schmidt in 2010 [1, 2, 3, 4]. […] The mechanism of this activity is thought to entail the inhibition of fungal β-glucan synthase, as is the case for the candine anti ...

[2] = RP-HPLC retention time as measure of hydrophilicity/hydrophobicity; type: physicochemical; details: chromatographic, Cosmosil 5C18-AR-II 4.6 x 150 mm, linear gradient 30–70% MeCN/H2O (0.1% TFA) for 30 min, 1 mL/min, UV 220 nm
Procedure: […] In all cases, the retention times of the (S)-Dab-containing peptides were shorter than those of the (R)-Dab-containing peptides, which were similar to those bearing L-Orn. The retention times of the cyclic peptides were shorter for Tat > D-Ser > L-Thr > L-Ser, while peptides bearing the undecanoic acid moiety eluted […] than those bearing the decanoic acid by about 2 min.

[3] = tested on: S. cerevisiae (ATCC204504); type: cell-based; details: ATCC204504, 24 h
Procedure: Bacto yeast extract (0.63 g, 70161, Fluka, Barcelona, Spain), peptone (1.00 g, 26421, Mikuni, Japan), and glucose (1.00 g, 16806-25, Nacalai tesque, Japan) were added to H2O (50 mL) at room temperature and the mixture was heated to 60 °C. After 30 min, the mixture was sterilized by heating in an autoclave at 121 °C for 20 min.
DMSO (8 µL, 13406-55, Nacalai tesque, Japan) was added to YPD medium (750 µL). The test fungus culture solution (3 µL) was added to this solution (1.5 mL).
The inhibitor (each 1.0 mg; 3a–h, 4a–b, 5a–b, 6a–b, 7, 8) was dissolved in DMSO (40 µL).
The prepared test bacteria (50 µL) were placed in A1–A12 of a 96-well plate. Bk analogue (50 µL) was added to A1, pipetting was performed, and then 50 µL was extracted from A1 and placed in A2. This operation was repeated until A11, and 50 µL extracted from A11 was discarded. The well plate was closed and incubated at 30 °C. After 24 h, the MIC values were evaluated.

S. cerevisiae [4] = assay: Potentiation assay with G418; type: cell-based; details: for potentiation of the effect of G418: S. cerevisiae, peptide dose 100 µg/mL, result in words
Procedure: as §1
The prepared test bacteria (50 µL) were placed in well A1–A12 of a 96-well plate. G418 (200 mg/mL, 108321-42-2, Nacalai tesque, Japan) in H2O, then medium […] was added to A1, pipetting was performed, and 50 µL was extracted from A1 and placed in A2. This operation was repeated until A11, and 50 µL extracted from A11 was discarded. After 30 min, Bk analogue (200 μg/mL) in medium […] was added to each solution (final concentration = 100 μg/mL). The well plate was closed and incubated at 30 °C. After 24 h, the MIC and potentiation values were evaluated.

Compound | tR [2] [min] | MIC [3] [µg/mL] | MIC90 (Candida albicans) [µg/mL] | potentiation of the effect of G418 (S. cerevisiae [4]) | other results
Cc1c(N)nc([C@H](CC(N)=O)NC[C@H](N)C(N)=O)nc1C(=O)N[C@H](C(=O)N[C@H](C)[C@@H](O)[C@H](C)C(=O)N[C@H](C(=O)NCCC1=N[C@@H](c2nc(C(=O)NCCCCN=C(N)N)cs2)CS1)[C@@H](C)O)[C@@H](O[C@@H]1O[C@@H](CO)[C@@H](O)[C@H](O)[C@@H]1O[C@H]1O[C@H](CO)[C@@H](O)[C@H](OC(N)=O)[C@@H]1O)c1cnc[nH]1 [zeocin] |  |  |  |  | MIC of zeocin alone (S. cerevisiae [1]): 3130 µg/mL
caspofungin |  |  | 0.25 |  | 
micafungin |  |  | 0.015 |  | 
CN[C@@H]1[C@@H](O)[C@@H](O[C@@H]2[C@@H](O)[C@H](O[C@H]3O[C@H]([C@@H](C)O)[C@@H](O)[C@H](O)[C@H]3N)[C@@H](N)C[C@H]2N)OC[C@]1(C)O [Compound G418, G418, reference compound] |  |  |  |  | MIC (S. cerevisiae [4]; Saccharomyces cerevisiae, 24 h, read-out: MIC of G418 alone): 25000 µg/mL

Now from value to compound, other results behind:

tR [2] [min] | MIC [3] [µg/mL] | Compound | MIC90 (Candida albicans) [µg/mL] | potentiation of the effect of G418 (S. cerevisiae [4]) | other results
10.7 | >200 | CCCCCCCCCCC(=O)N[C@H](C(=O)NC[C@H]1CC(=O)N[C@H](CO)C(=O)N[C@H](Cc2ccc(O)cc2)C(=O)N[C@H](CC(N)=O)C(=O)NCC(=O)N[C@@H](CC(N)=O)C(=O)N[C@@H](CO)C(=O)N[C@@H](CC(N)=O)C(=O)N1)[C@@H](C)O [Compound 4b, Cyclo-[Undecanoic Acid-Thr-(R)-7-D-Ser-D-Tyr-D-Asn-Gly-Asn-Ser-Asn]] ([dS][dY][dN]GNSN; linker N-C via X3) |  | weak potentiating effects | 
6.4 | >200 | CCCCCCCCNC(=O)[C@H](O)[C@@H](O)C(=O)NC[C@H]1CC(=O)N[C@H](CO)C(=O)N[C@H](Cc2ccc(O)cc2)C(=O)N[C@H](CC(N)=O)C(=O)NCC(=O)N[C@@H](CC(N)=O)C(=O)N[C@@H](CO)C(=O)N[C@@H](CC(N)=O)C(=O)N1 [Compound 5b, Cyclo-[(2R,3R)-2,3-dihydroxy-4-(octylamino)-4-oxobutanoic Acid-(R)-7-D-Ser-D-Tyr-D-Asn-Gly-Asn-Ser-Asn]] ([dS][dY][dN]GNSN; linker N-C via X2) |  | weak potentiating effects | 
